Reference: patent US9427426B2 (priority 2008, dated 2016)
“And” between values parts separate entries of the source, which are not always exact repeats. Equal entries are not always repeated.

How the values were obtained:
[1] = test system: rats intoxicated with lead (lead acetate); test: Example 5: erdosteine prophylaxis per os plus i.v. treatment in lead intoxication; assay type: in vivo, rats Wistar; set-up: RBC / ALT / Hct / MCH / Hb / WBC / Urea / Uric acid / AST: unit not given here
Protocol: The experiment has been structured for subjects that at a certain moment might be at higher risk to be intoxicated, for professional or other reasons. After intoxication the animals have been treated i.v.
Experiment has been carried out in parallel with example 3. Whatever not specified is identical with example 3.
Lot 14 One lot of 30 rats Wistar (15 males and 15 females) have been introduced in the experiment.
At day −2, day −1 and day 0 the animals have been administered 300 mg/kg erdosteine per os. At day 0, four hours after administration of erdosteine, the animals have been intoxicated with lead as described in example 3. After lead intoxications animals have been treated with erdosteine 350 mg/kg with the same protocol as described in example 3. […] Results have been compared with lot 2 since the experiments were carried out in parallel and results can be compared.

[2] = test system: rats intoxicated with paracetamol; test: Example 4: erdosteine i.v. vs NAC i.v. in rats intoxicated with paracetamol; assay type: in vivo, Wistar rats
From the text: Experiment has been carried on in parallel with experiment of example 3 and results of animals not intoxicated not treated (lot1) have been used as reference.
(§1) 3. […] NAC has been dissolved in bidistilled water.
Animals have been monitored as described in example 3.
Mortality has been recorded.

[3] = test system: rats intoxicated with lead (lead acetate); test: Example 2: erdosteine i.v. vs NAC i.v. in rats intoxicated with lead; assay type: in vivo, Wistar rats; details: for Mortalitaty total / Mortality in percent: Pb intoxicated (lead acetate 4665 mg/kg per os), 35 animals/lot; for Anatomical pathology: lesions / Pb in urine, Pb mean values / Creatinine mean values / Haematocrit mean values / Haemoglobin mean values / Leucocytes mean values / Urea mean values / Uric acid mean value / erythrocytes mean values: Pb intoxicated; for Creatinine mean values / Haematocrit mean values / Haemoglobin mean values / Leucocytes mean values / Urea mean values / Uric acid mean value / erythrocytes mean values: survivors after 7 days
Protocol: The animals have been randomly divided in 11 lots.
as §1
4. […] Erdosteine has been solubilized in bidistilled water and sodium hydrogen carbonate equimolar, the resulting solution being administered in volume of 10 ml/kg. Preliminarily we tested the different molar ratios erdosteine/sodium hydrogen carbonate in a range between 0.5:1 and 1.5:1 and the volume to be solubilized. […] Animals Monitoring:
Mortality has been recorded. […] Few animals have been collected urine eliminated spontaneously for Pb—Hg analysis. Animals have been sacrificed under general anesthesia with ether. 6 animals of each group (3 males and 3 females) have been randomly selected for macroscopic and microscopic anatomic-pathological examination.

[4] = test system: rat intoxicated with lead (lead acetate); test: Example 3: erdosteine i.v. vs BAL+EDTA (TT) and association in rats intoxicated with lead; details: erdosteine 350 mg/kg i.v.
From the text: The animals have been randomly divided in 6 lots.
2. […] Dosage administered is similar to the maximum possible dosage in man.
4. Erdosteine has been administered first, immediately after intoxication, followed rapidly by BAL and then EDTA by more operators in sequence, in order to simulate the situation in man when it is possible to administer i.v. in perfusion and at the same time i.m.
Mortality has been recorded. […] After 7 days urine have been taken through trans-vesica punction.
Analysis of mortality have been made using Chi square test.
Results with p<0.05 have been considered statistically significant.
Biochemical tests have been made with Refloton 2000, hematological tests with Hemastar 4, urine summary with Urilux, Pb in urine with GC-MS Varian

[5] = lot 14: erdosteine 300 mg/kg per os at day -2, -1, 0, then lead acetate 4665 mg/kg per os and erdosteine 350 mg/kg i.v. once a day for 7 days, 30 rats
[6] = lot 14 survivors day 7, prophylaxis per os + Pb intoxication + erdosteine 350 mg/kg i.v.
[7] = lot 14 day 0 before intoxication, after erdosteine 300 mg/kg per os at day -2, -1, 0
[8] = paracetamol […] per os, erdosteine 350 mg/kg i.v. or NAC 114 mg/kg i.v. once a day for 7 days, 30 animals/lot
[9] = paracetamol intoxicated, erdosteine 350 mg/kg i.v. or NAC 114 mg/kg i.v., 7 days
[10] = survivors at 7 days, paracetamol intoxicated, erdosteine 350 mg/kg i.v. or NAC 114 mg/kg i.v.
[11] = ERDO1 = erdosteine 350 mg/kg i.v. or NAC 114 mg/kg i.v. once a day for 7 days
[12] = ERDO2 = erdosteine 175 mg/kg i.v. once a day for 7 days
[13] = ERDO1 = erdosteine 350 mg/kg i.v. or NAC 114 mg/kg i.v. once a day
[14] = ERDO2 = erdosteine 175 mg/kg i.v. once a day
[15] = Pb intoxicated (lead acetate 4665 mg/kg per os), BAL 25.2 mg/kg + EDTA 30 mg/kg i.m. (TT) or both, once a day for 7 days, 30 animals/lot
[16] = survivors after 7 days, Pb intoxicated, TT (BAL+EDTA i.m.) or both
[17] = survivors after 7 days, Pb intoxicated, TT (BAL+EDTA i.m.) or both, listed as Erdosteine
[18] = urine at the end of period (7 days), Pb intoxicated, TT or both

## O=C(O)CSCC(=O)NC1CCSC1=O (stereo not drawn) [erdosteine, Erdosteine]
[1]; [5]
  Mortality %: 20%
  Total mortality: 6/30 ^2
[1]; [6]
  ALT: 165.4^1,2
  AST: 48.9^1,2
  Hb: 17.12
  Hct: 43.81
  MCH: 23.12
  PLT: 605
  RBC: 7.446
  Urea: 62.2^1,2
  Uric acid: 2.71
  WBC: 6.98
[1]; [7]
  ALT: 166.2
  AST: 36.2
  Hb: 19.96
  Hct: 47.45
  MCH: 25.12
  PLT: 793
  RBC: 7.93
  Urea: 54.86
  Uric acid: 1.95
  WBC: 4.90
[2]; [8]
  Mortality percentual: 27%
  Total mortality: 8/30
[2]; paracetamol intoxicated, erdosteine 350 mg/kg i.v. or NAC 114 mg/kg i.v.
  Renal aggression (urine summary), in words: antagonized
[2]; [9]
  Urine summary: Bil.: 1 mg/dL
  Urine summary: Chet: neg
  Urine summary: Density: 1020
  Urine summary: Erythrocyte: 25 µL⁻¹
  Urine summary: Glucose: neg
  Urine summary: Leuc: 10 µL⁻¹
  Urine summary: Prot.: 50 mg/dL
  Urine summary: UBG: 1 mg/dL
  Urine summary: pH: 7
[2]; [10]
  ALT: 165.4^2,3
  AST: 45.2^2
  HCT: 42.9^1
  PLT: 749.8^2,3
  RBC: 7.45^1
  Urea: 55.2^2,3
  Uric acid: 1.934^2,3
[3]; [11]
  Mortalitaty total: 5 ^1, 2
  Mortality in percent: 14.3%
  Anatomical pathology: lesions: less important damages
  Pb in urine, Pb mean values: 15.9 mg/L
[3]; [12]
  Mortalitaty total: 10 ^1, 2
  Mortality in percent: 28.6%
  Anatomical pathology: lesions: did not improve lesions
  Pb in urine, Pb mean values: 13 mg/L
[3]; [13]
  Creatinine mean values: 0.49 ^1, 2 mK/dl
  Haematocrit mean values: 37.21 ^3
  Haemoglobin mean values: 15.71 ^3 g/dl
  Leucocytes mean values: 11.36 ^3
  Urea mean values: 48.95 ^1, 2, 3 mg/dl
  Uric acid mean value: 2.28 ^4 mg/dl
  erythrocytes mean values: 7.01 ^3 *10^6/mm^3
[3]; [14]
  Creatinine mean values: 0.46 ^1, 2 mK/dl
  Haematocrit mean values: 37.7 ^3
  Haemoglobin mean values: 15.95 ^3 g/dl
  Leucocytes mean values: 14.35 ^3
  Urea mean values: 54.4 ^1, 2 mg/dl
  Uric acid mean value: 1.76 ^1, 2 mg/dl
  erythrocytes mean values: 7.07 ^3 *10^6/mm^3
[4]; [15]
  Mortality %: 37%
  Total mortality: 11/30 and 11/30 ^1
[4]; Pb intoxicated, TT or both
  Renal aggression (urine summary), in words: improvement compared with TT
[4]; Pb intoxicated, TT or both, once a day for 7 days
  Pb in urine of survivors at the end of period, mean values: 164.6 mg/L
[4]; [16]
  ALT: 159^2
  AST: 57.2^3
  Hb: 16.98
  Hct: 42.9
  MCH: 23.46
  PLT: 574
  RBC: 7.156
  Urea: 69.4^3
  Uric acid: 2.632
  WBC: 6.16
[4]; [17]
  ALT: 159^2,3
  AST: 57.2
  Hb: 16.98^3
  PLT: 574^3
  RBC: 7.156^1,3
  Urea: 68.4
  WBC: 6.16^3
[4]; [18]
  Urine summary: Bil.: 3 mg/dL
  Urine summary: Chet: 10 mg/dL
  Urine summary: Density: 1020
  Urine summary: Erythrocyte: 100 µL⁻¹
  Urine summary: Glucose: 50 mg/dL
  Urine summary: Leuc: 28 µL⁻¹
  Urine summary: Prot.: 90 mg/dL
  Urine summary: UBG: 1 mg/dL
  Urine summary: pH: 6.5
